Measured values taken from patent US20100204265A1 (priority 2009, published 2010).

These molecules were tested on ET (Huh-lucubineo-ET) cell line harboring I389luc-ubi-neo/NS3-3′/ET HCV replicon (assay: Replicon assay (HCV replicon, luciferase readout)). Settings: Hepatitis C virus.
Format: cell-based
Procedure: A cell line, ET (Huh-lucubineo-ET) is used for screening of compounds for inhibiting HCV RNA dependent RNA polymerase. The ET cell line is stably transfected with RNA transcripts harboring a I389luc-ubi-neo/NS3-3′/ET; replicon with firefly luciferase-ubiquitin-neomycin phosphotransferase fusion protein and EMCV-IRES driven NS3-5B polyprotein containing the cell culture adaptive mutations (E1202G; T1280I; K1846T) (Krieger at al, 2001 and unpublished). The ET cells are grown in DMEM (Dulbeco's Modified Eagle's Medium), supplemented with 10% fetal calf serum, 2 mM Glutamine, Penicillin (100 IU/mL)/Streptomycin (100 μg/mL), 1× nonessential amino acids, and 250 μg/mL G418 (“Geneticin”). They are all available through Life Technologies (Bethesda, Md.). The cells are plated at 0.5−1.0×10^4 cells/well in the 96 well plates and incubated for 24 hrs before adding test compound. The compounds are added to the cells to achieve a final concentration of 0.1 nM to […] and a final DMSO (dimethylsulfoxide) concentration of 0.5%. Luciferase activity is measured 48-72 hours later by adding a lysis buffer and the substrate (Catalog number Glo-lysis buffer E2661 and Bright-Glo luciferase system E2620 Promega, Madison, Wis.). Cells should not be too confluent during the assay. Percent inhibition of replication data is plotted relative to no compound control. Under the same condition, cytotoxicity of the compounds are determined using cell proliferation reagent, WST-1 (Roche, Germany). The compounds showing antiviral activities, but no significant cytotoxicities are chosen to determine EC50 and TC50. For these determinations, a 10 point, 2-fold serial dilution for each compound was used, which spans a concentration range of 1000 fold. EC50 and similarly TC50 values were calculated by fitting % inhibition at each concentration to the following equation:
% inhibition=100%/[(EC50/[I])^b+1]
where b is Hill's coefficient.
`COC(=O)[C@H](CCCCNC(=O)OC(C)(C)C)NC(=O)Cc1cn2cc(-c3ccoc3)cc(C(F)(F)F)c2n1` (stereo in doubt) [Compound 153, 6-tert-Butoxycarbonylamino-2-[2-(6-furan-3-yl-8-trifluoromethyl-imidazo[1,2-a]pyridin-2-yl)-acetylamino]-hexanoic acid methyl ester] gave an EC50 of 13.9 µM. `COC(=O)[C@@H](NC(=O)Cc1cn2cc(-c3ccoc3)cc(C(F)(F)F)c2n1)C(C)(C)C` (stereo in doubt) [Compound 294, 2-[2-(6-Furan-3-yl-8-trifluoromethyl-imidazo[1,2-a]pyridin-2-yl)-acetylamino]-3,3-dimethyl-butyric acid methyl ester] was tested, and the EC50 was > 50 µM. `NC(=O)[C@H](CO)NC(=O)Cc1cn2cc(-c3ccoc3)cc(C(F)(F)F)c2n1` (stereo in doubt) [Compound 298, 2-[2-(6-Furan-3-yl-8-trifluoromethyl-imidazo[1,2-a]pyridin-2-yl)-acetylamino]-3-hydroxy-propionamide] was tested, and the EC50 was > 50 µM. For `O=C(N[C@@H]1CCN(C(=O)c2nc3c(C(F)(F)F)cc(-c4ccoc4)cn3c2Cl)C1)OCCCl` (stereo in doubt) [Compound 321, [1-(3-Chloro-6-furan-3-yl-8-trifluoromethyl-imidazo[1,2-a]pyridine-2-carbonyl)-pyrrolidin-3-yl]-carbamic acid 2-chloro-ethyl ester], the EC50 was > 50 µM. Work on `O=C(O)c1nc2c(C(F)(F)F)cc(-c3ccoc3)cn2c1Cl` [Compound 101, 3-Chloro-6-furan-3-yl-8-trifluoromethyl-imidazo[1,2-a]pyridine-2-carboxylic acid] yielded an EC50 of 7.01 µM. In the case of `O=C(c1nc2c(C(F)(F)F)cc(-c3ccoc3)cn2c1Cl)N1CCC(c2ccccc2F)C(O)C1` (stereo not drawn) [Compound 102, (3-Chloro-6-furan-3-yl-8-trifluoromethyl-imidazo[1,2-a]pyridin-2-yl)-[4-(2-fluoro-phenyl)-3-hydroxy-piperidin-1-yl]-methanone], the EC50 is reported as 0.0469 µM. In the case of `O=C(c1nc2c(C(F)(F)F)cc(-c3cn[nH]c3)cn2c1Cl)N1CC=C(c2ccccc2F)C1` [Compound 103, [3-Chloro-6-(1H-pyrazol-4-yl)-8-trifluoromethyl-imidazo[1,2-a]pyridin-2-yl]-[3-(2-fluoro-phenyl)-2,5-dihydro-pyrrol-1-yl]-methanone], the EC50 is reported as 0.0389 µM. Work on `O=C(c1nc2c(C(F)(F)F)cc(-c3cn[nH]c3)cn2c1Cl)N1CC=C(c2c[nH]cn2)C1` [Compound 104, [3-Chloro-6-(1H-pyrazol-4-yl)-8-trifluoromethyl-imidazo[1,2-a]pyridin-2-yl]-[3-(1H-imidazol-4-yl)-2,5-dihydro-pyrrol-1-yl]-methanone] yielded an EC50 of 5.96 µM. `O=C(c1nc2c(C(F)(F)F)cc(-c3cn[nH]c3)cn2c1Cl)N1CC=C(c2cncs2)C1` [Compound 105, [3-Chloro-6-(1H-pyrazol-4-yl)-8-trifluoromethyl-imidazo [1,2-a]pyridin-2-yl]-(3-thiazol-5-yl-2,5-dihydro-pyrrol-1-yl)-methanone] showed an EC50 of 0.13 µM. For `O=C(c1nc2c(C(F)(F)F)cc(-c3ccoc3)cn2c1Cl)N1CC=C(c2cncs2)C1` [Compound 106, (3-Chloro-6-furan-3-yl-8-trifluoromethyl-imidazo[1,2-a]pyridin-2-yl)-(3-thiazol-5-yl-2,5-dihydro-pyrrol-1-yl)-methanone], the EC50 was 0.0886 µM. `O=C(c1nc2c(C(F)(F)F)cc(-c3cn[nH]c3)cn2c1Cl)N1CC=C(c2cnsc2)C1` [Compound 107, [3-Chloro-6-(1H-pyrazol-4-yl)-8-trifluoromethyl-imidazo [1,2-a]pyridin-2-yl]-(3-isothiazol-4-yl-2,5-dihydro-pyrrol-1-yl)-methanone] gave an EC50 of 0.241 µM. In the case of `CS(=O)(=O)N1CCN(C(=O)c2nc3c(C(F)(F)F)cc(-c4ccoc4)cn3c2Cl)CC1` [Compound 108, (3-Chloro-6-furan-3-yl-8-trifluoromethyl-imidazo[1,2-a]pyridin-2-yl)-(4-methanesulfonyl-piperazin-1-yl)-methanone], the EC50 is reported as 24.1 µM. `O=C(Cc1cn2cc(-c3ccoc3)cc(C(F)(F)F)c2n1)N1CCN(c2nccs2)CC1` [Compound 109, 2-(6-Furan-3-yl-8-trifluoromethyl-imidazo[1,2-a]pyridin-2-yl)-1-(4-thiazol-2-yl-piperazin-1-yl)-ethanone] was tested, and the EC50 was > 50 µM. Molecule `O=C(Cc1cn2cc(-c3ccoc3)cc(C(F)(F)F)c2n1)N1CCCCC1c1ccccc1` (stereo not drawn) [Compound 110, 2-(6-Furan-3-yl-8-trifluoromethyl-imidazo[1,2-a]pyridin-2-yl)-1-(2-phenyl-piperidin-1-yl)-ethanone] has an EC50 of 49 µM. For `O=C(c1nc2c(C(F)(F)F)cc(-c3ccoc3)cn2c1Cl)N1CC=C(c2ncc[nH]2)CC1` [Compound 111, (3-Chloro-6-furan-3-yl-8-trifluoromethyl-imidazo[1,2-a]pyridin-2-yl)-[4-(1H-imidazol-2-yl)-3,6-dihydro-2H-pyridin-1-yl]-methanone], the EC50 was > 50 µM. `O=C(c1nc2c(C(F)(F)F)cc(-c3cn[nH]c3)cn2c1Cl)N1CC=C(c2cn[nH]c2)CC1` [Compound 112, [3-Chloro-6-(1H-pyrazol-4-yl)-8-trifluoromethyl-imidazo[1,2-a]pyridin-2-yl]-[4-(1H-pyrazol-4-yl)-3,6-dihydro-2H-pyridin-1-yl]-methanone] was tested, and the EC50 was 0.368 µM. In the case of `O=C(Cc1cn2cc(-c3ccoc3)cc(C(F)(F)F)c2n1)N1Cc2ccccc2C1` [Compound 113, 1-(1,3-Dihydro-isoindol-2-yl)-2-(6-furan-3-yl-8-trifluoromethyl-imidazo[1,2-a]pyridin-2-yl)-ethanone], the EC50 is reported as 8.63 µM. For `O=C(c1nc2c(C(F)(F)F)cc(-c3ccoc3)cn2c1Cl)N1CCC(N2CCCCC2=O)CC1` [Compound 114, 1′-(3-Chloro-6-furan-3-yl-8-trifluoromethyl-imidazo[1,2-a]pyridine-2-carbonyl)-[1,4′]bipiperidinyl-2-one], the EC50 was 1.33 µM. With `CCOc1cccnc1C1=CCN(C(=O)c2nc3c(C(F)(F)F)cc(-c4ccoc4)cn3c2Cl)CC1` [Compound 115, (3-Chloro-6-furan-3-yl-8-trifluoromethyl-imidazo[1,2-a]pyridin-2-yl)-(3-ethoxy-3′,6′-dihydro-2′H-[2,4′]bipyridinyl-1′-yl)-methanone] the EC50 was 22.5 µM. Molecule `O=C(c1cc2c(C(F)(F)F)cc(-c3cccs3)nc2[nH]1)N1CC=C(c2ncccc2F)CC1` [Compound 116, (3-Fluoro-3′,6′-dihydro-2′H-[2,4′]bipyridinyl-1′-yl)-(6-thiophen-2-yl-4-trifluoromethyl-1H-pyrrolo[2,3-b]pyridin-2-yl)-methanone] has an EC50 of 24.4 µM. For `O=C(c1cc2nc(-c3cccs3)cc(C(F)(F)F)c2[nH]1)N1CC=C(c2ncccc2F)CC1` [Compound 117, (3-Fluoro-3′,6′-dihydro-2′H-[2,4′]bipyridinyl-1′-yl)-(5-thiophen-2-yl-7-trifluoromethyl-1H-pyrrolo[3,2-b]pyridin-2-yl)-methanone], the EC50 was 23.9 µM. Molecule `O=C(c1nc2c(C(F)(F)F)cc(-c3nccs3)cn2c1Cl)N1CC=C(c2ncccc2F)CC1` [Compound 118, (3 -Chloro-6-thiazol-2-yl-8-trifluoromethyl-imidazo[1,2-a]pyridin-2-yl)-(3-fluoro-3′,6′-dihydro-2′H-[2,4′]bipyridinyl-1′-yl)-methanone] has an EC50 of 0.655 µM. `O=C(c1nc2c(C(F)(F)F)cc(-c3cncs3)cn2c1Cl)N1CC=C(c2ncccc2F)CC1` [Compound 119, (3-Chloro-6-thiazol-5-yl-8-trifluoromethyl-imidazo[1,2-a]pyridin-2-yl)-(3-fluoro-3′,6′-dihydro-2′H-[2,4′]bipyridinyl-1′-yl)-methanone] gave an EC50 of 0.354 µM. `O=C(c1nc2c(C(F)(F)F)cc(-c3cscn3)cn2c1Cl)N1CC=C(c2ncccc2F)CC1` [Compound 120, (3-Chloro-6-thiazol-4-yl-8-trifluoromethyl-imidazo[1,2-a]pyridin-2-yl)-(3-fluoro-3′,6′-dihydro-2′H-[2,4′]bipyridinyl-1′-yl)-methanone] gave an EC50 of 3.04 µM. Molecule `O=C(c1nc2c(C(F)(F)F)cc(C3=CCNC3)cn2c1Cl)N1CC=C(c2ncccc2F)CC1` [Compound 121, [3-Chloro-6-(2,5-dihydro-1H-pyrrol-3-yl)-8-trifluoromethyl-imidazo[1,2-a]pyridin-2-yl]-(3-fluoro-3′,6′-dihydro-2′H-[2,4′]bipyridinyl-1′-yl)-methanone] has an EC50 of 2.54 µM. Molecule `O=C(c1nc2c(C(F)(F)F)cc(-c3c[nH]cn3)cn2c1Cl)N1CC=C(c2ncccc2F)CC1` [Compound 122, [3-Chloro-6-(1H-imidazol-4-yl)-8-trifluoromethyl-imidazo[1,2-a]pyridin-2-yl]-(3-fluoro-3′,6′-dihydro-2′H-[2,4′]bipyridinyl-1′-yl)-methanone] has an EC50 of 5.89 µM. For `O=C(c1nc2c(C(F)(F)F)cc(-c3cccs3)cn2c1Cl)N1CC=C(c2ncccc2F)CC1` [Compound 123, (3-Chloro-6-thiophen-2-yl-8-trifluoromethyl-imidazo[1,2-a]pyridin-2-yl)-(3-fluoro-3′,6′-dihydro-2′H-[2,4′]bipyridinyl-1′-yl)-methanone], the EC50 was 0.147 µM.
